According to patent US20150278438A1, “GENETIC PREDICTORS OF RESPONSE TO TREATMENT WITH CRHR1 ANTAGONISTS” (MAX-PLANCK-GESELLSCHAFT ZUR FÖRDERUNG DER WISSENSCHAFTEN …, priority 2012, published 2015):

What was measured:
Cor26 CRH mice = test: Sleep EEG/EMG recording of REMS levels in Cor26 CRH mice treated with CRH-R1 antagonist; settings: 50 mg/kg/d via drinking water; for REMS levels: CRH-overexpressing Cor26 CRH mice
[1] = system: mice overexpressing CRH in the forebrain; settings: Kimura et al. 2010; cited from earlier work
CRH-COE^CNS mice = test: Sleep EEG/EMG recording of REMS activity in CRH-COE^CNS mice treated with CRH-R1 antagonist; type: in vivo, mouse; settings: 50 mg/kg/d via drinking water; for REMS activity: CRH-COE^CNS mice, versus baseline, significant beginning with treatment day two (DMP-696 P<0.05; SSR125543 P≦0.035)
Procedure: Experiments were conducted with two different mouse lines of excessive central CRH secretion and their respective control littermates (CL). Mice of the CRH-COE^CNS line are characterised by CRH-overexpression within the whole CNS, whereas mice of the Cor26 CRH line display a CRH-overexpression specific to CRH-ergic neurons of the CNS. Three different CRHR1 antagonists were tested. […] In all cases, animals were left to recover from EEG/EMG-electrode implantation for two weeks, after which two days of baseline recording were initiated. Treatment with CRH-R1 antagonist or respective vehicle control commenced thereafter for five consecutive days. Antagonists were applied through the drinking water at a daily dose of 50 mg/kg body weight. EEG and EMG recordings were manually scored as wake, non-REMS (NREMS), and REMS in four second epochs by an experienced evaluator.

CCC(CC)Oc1cc(C)nc(Oc2c(C)cc(C)cc2C)c1C [CP-316,311]
REMS levels (Cor26 CRH mice; 50 mg/kg/day): apparently seemed weak
REMS levels (Cor26 CRH mice; listed as CP-316311, 50 mg/kg/day): suppressed
REMS levels, area under the curve (AUC) within the light period, baseline versus treatment day three (Cor26 CRH mice; Cor26 CRH mice, P=0.006): significant decrease

COCC(COC)Nc1nc(C)nc2c(-c3ccc(Cl)cc3Cl)c(C)nn12 [DMP-696]
REM enhancement [1]: reverse the REM enhancement
REMS activity, treatment day three (CRH-COE^CNS mice; CRH-COE^CNS animals, treatment day three): strongest suppression
REMS activity (CRH-COE^CNS mice; 50 mg/kg/day): significant decrease
REMS activity (CRH-COE^CNS mice; listed as DMP696, 50 mg/kg/day): suppressed
